Experimental findings from patent US9284319B2, “Heterocyclyl aminoimidazopyridazines” (BAYER INTELLECTUAL PROPERTY GMBH, priority 2011, dated 2016) are described below.

Test [1] addresses T1, human full-length MKNK1 (Homo sapiens (Human), UniProt Q9BUB5, T344D). Nature of the test: MKNK1 kinase assay (TR-FRET). The format is biochemical. As to conditions: ATP 10 μM final; 15 min preincubation with enzyme. As for the experimental part: MKNK1-inhibitory activity of compounds of the present invention was quantified employing the MKNK1 TR-FRET assay as described in the following paragraphs.
As substrate for the kinase reaction the biotinylated peptide biotin-Ahx-[…] (C-terminus in amide form) was used which can be purchased e.g. form the company Biosyntan (Berlin-Buch, Germany).
(§1) For the assay 50 nL of a 100 fold concentrated solution of the test compound in DMSO was pipetted into a black low volume 384 well microtiter plate (Greiner Bio-One, Frickenhausen, Germany), 2 μL of a solution of MKNK1 in aqueous assay buffer [50 mM HEPES pH 7.5, 5 mM magnesium chloride, 1.0 mM dithiothreitol, 0.005% (v/v) Nonidet-P40 (Sigma)] was added and the mixture was incubated for 15 min at 22° C. to allow pre-binding of the test compounds to the enzyme before the start of the kinase reaction. Then the kinase reaction was started by the addition of 3 μL of a solution of adenosine-tri-phosphate (ATP, 16.7 μM=>final conc. in the 5 μL assay volume is 10 μM) and substrate (0.1 μM=>final conc. in the 5 μL assay volume is 0.06 μM) in assay buffer and the resulting mixture was incubated for a reaction time of 45 min at 22° C. The concentration of MKNK1 was adjusted depending of the activity of the enzyme lot and was chosen appropriate to have the assay in the linear range, typical concentrations were in the range of 0.05 μg/mL. The reaction was stopped by the addition of 5 μL of a solution of TR-FRET detection reagents (5 nM streptavidine-XL665 [Cisbio Bioassays, Codolet, France] and 1 nM anti-ribosomal protein S6 (pSer236)-antibody from Invitrogen [#44921G] and 1 nM LANCE EU-W1024 labeled ProteinG [Perkin-Elmer, product no. AD0071]) in an aqueous EDTA-solution (100 mM EDTA, 0.1% (w/v) bovine serum albumin in 50 mM HEPES pH 7.5).
(§2) The resulting mixture was incubated for 1 h at 22° C. to allow the formation of complex between the phosphorylated biotinylated peptide and the detection reagents. Subsequently the amount of phosphorylated substrate was evaluated by measurement of the resonance energy transfer from the Eu-chelate to the streptavidine-XL. Therefore, the fluorescence emissions at 620 nm and 665 nm after excitation at 350 nm were measured in a TR-FRET reader, e.g. a Rubystar (BMG Labtechnologies, Offenburg, Germany) or a Viewlux (Perkin-Elmer). The ratio of the emissions at 665 nm and at 622 nm was taken as the measure for the amount of phosphorylated substrate.
(TR-FRET usually uses a lanthanide donor and a delayed reading to cut background.)

Test [2] concerns the target T1, human full-length MKNK1. Put plainly: MKNK1 kinase high ATP assay (TR-FRET). The settings on record: ATP 2 mM final; 15 min preincubation with enzyme. It is filed as biochemical. How it is done:
MKNK1 Kinase High ATP Assay
MKNK1-inhibitory activity at high ATP of compounds of the present invention after their preincubation with MKNK1 was quantified employing the TR-FRET-based MKNK1 high ATP assay as described in the following paragraphs.
As substrate for the kinase reaction the biotinylated peptide biotin-Ahx-[…] (C-terminus in amide form) was used, which can be purchased e.g. from the company Biosyntan (Berlin-Buch, Germany).
as §1, with “3.3 mM=>final” for “16.7 μM=>final”, “2 mM)” for “10 μM)”, “30” for “45”, “0.003” for “0.05”
as §2

As a reminder, the IC50 is the concentration that inhibits the measured activity by half.

T1 sequence (Q9BUB5 other isoform, or with tags, fused parts or gaps T344D): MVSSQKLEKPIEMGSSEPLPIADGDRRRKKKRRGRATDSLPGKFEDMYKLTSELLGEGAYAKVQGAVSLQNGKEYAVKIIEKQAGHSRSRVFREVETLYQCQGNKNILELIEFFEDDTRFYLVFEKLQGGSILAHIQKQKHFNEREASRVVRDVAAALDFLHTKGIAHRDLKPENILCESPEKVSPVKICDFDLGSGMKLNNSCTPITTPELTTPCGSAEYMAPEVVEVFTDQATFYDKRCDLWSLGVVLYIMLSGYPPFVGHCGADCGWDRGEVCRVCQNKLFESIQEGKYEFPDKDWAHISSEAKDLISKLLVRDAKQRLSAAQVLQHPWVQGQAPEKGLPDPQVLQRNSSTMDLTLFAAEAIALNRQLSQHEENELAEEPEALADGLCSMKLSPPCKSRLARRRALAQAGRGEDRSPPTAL

`OC1CN(c2ccc3ncc(-c4cc5ccccc5o4)n3n2)C1` [Example 6, 1-[3-(1-Benzofuran-2-yl)imidazo[1,2-b]pyridazin-6-yl]azetidin-3-ol]: the IC50 in test [1] was 33 nM; in test [2], 12 nM. The matching figures for `O[C@H]1CCN(c2ccc3ncc(-c4cc5ccccc5o4)n3n2)C1` [Example 8, (3S)-1-[3-(1-Benzofuran-2-yl)imidazo[1,2-b]pyridazin-6-yl]pyrrolidin-3-ol]: 19 nM and 15 nM. The matching figures for `OC[C@@H]1CCN(c2ccc3ncc(-c4cc5ccccc5o4)n3n2)C1` [Example 7, {(3R)-1-[3-(1-Benzofuran-2-yl)imidazo[1,2-b]pyridazin-6-yl]pyrrolidin-3-yl}methanol]: 14 nM and 4 nM. The matching figures for `OCC1CCCN(c2ccc3ncc(-c4cc5ccccc5o4)n3n2)C1` (stereo not drawn) [Example 5, {1-[3-(1-Benzofuran-2-yl)imidazo[1,2-b]pyridazin-6-yl]piperidin-3-yl}methanol]: 37 nM and 13 nM. For the compound `OC[C@H]1CCN(c2ccc3ncc(-c4cc5ccccc5o4)n3n2)C1` [Example 10, {(3S)-1-[3-(1-Benzofuran-2-yl)imidazo[1,2-b]pyridazin-6-yl]pyrrolidin-3-yl}methanol], in test [1], it took 20 nM to reach half-maximal inhibition (IC50).

Take `OC[C@@H]1CCCN1c1ccc2ncc(-c3cc4ccccc4o3)n2n1` [Example 1, {(2S)-1-[3-(1-Benzofuran-2-yl)imidazo[1,2-b]pyridazin-6-yl]pyrrolidin-2-yl}methanol]: the IC50 in test [1] turned out to be 19 nM; in test [2], 7 nM. The matching figures for `OC[C@H]1CCCN1c1ccc2ncc(-c3cc4ccccc4o3)n2n1` [Example 2, {(2R)-1-[3-(1-Benzofuran-2-yl)imidazo-[1,2-b]-pyridazin-6-yl]pyrrolidin-2-yl}-methanol]: 42 nM and 22 nM. In the case of `O[C@@H]1CCN(c2ccc3ncc(-c4cc5ccccc5o4)n3n2)C1` [Example 9, (3R)-1-[3-(1-Benzofuran-2-yl)imidazo[1,2-b]pyridazin-6-yl]pyrrolidin-3-ol], in test [1], the IC50 turned out to be 15 nM. Consider `O[C@@H]1CCCN(c2ccc3ncc(-c4cc5ccccc5o4)n3n2)C1` [Example 4, (3R)-1-[3-(1-Benzofuran-2-yl)imidazo[1,2-b]pyridazin-6-yl]piperidin-3-ol], for which the IC50 in test [1] was determined as 44 nM; in test [2], 15 nM. In the same order, the values of `OC1CCN(c2ccc3ncc(-c4cc5ccccc5o4)n3n2)C1` (stereo not drawn) [Example 3, 1-[3-(1-Benzofuran-2-yl)imidazo[1,2-b]pyridazin-6-yl]pyrrolidin-3-ol] are 17 nM and 6 nM.
